Laboratory results taken from patent US12486280B2, “CDK inhibitors and uses thereof” (California Institute of Technology, priority 2018, dated 2025).

What was measured:
[1] = molecular target: hERG potassium channels (Homo sapiens (Human), UniProt Q12809); assay: hERG Inhibition Assay (QPatch automated patch clamp, CHO cells); settings: percent of control current
Description: Effects of compounds on hERG potassium channel conductance was assessed using the automated patch clamp method QPatch^HTX. Compounds were prepared at 10 mM stocks. CHO cells stably expressing hERG potassium channels were used for this assay. Cells were cultured in a humidified and air-controlled 5% CO2) incubator at 37° C. Compound stocks and the positive control Amitriptyline were dissolved in 100% DMSO to make various solution concentrations. These solutions were further diluted into extracellular solution to achieve final concentrations for testing. The final DMSO concentration in extracellular solution was 0.30%. The hERG QPatch^HTX assay was conducted at room temperature.
The following voltage command protocol was used: • From the holding potential of −80 mV, the voltage was first stepped to −50 mV for 80 ms for leak subtraction, and then stepped to +20 mV for 4,800 ms to open hERG channels. • After which, the voltage was stepped back down to −50 mV for 5,000 ms, causing a “rebound” or tail current, which was measured and collected for data analysis. • Finally, the voltage was stepped back to the holding potential of −80 mV for 3,100 ms.
For each experiment, three additions of 5 μL of the vehicle were applied, followed by 30 runs of the voltage command protocol for a baseline period. Then, the ascending doses of each compound were added with three repetitions (5 μL of compound each time).

[2] = system: drug-sensitive cell lines of Table 2 (EFM-19, MDA-MB-453, T-47D, ZR-75-1, NCI-H441, OVTOKO, NCI-H1838); assay: Cell Line Growth Retardation Assay, sensitive cohort; assay type: cell-based, human; settings: for IC50: Homo sapiens, geometric mean over sensitive cohort, 6 days growth, read-out: AvgSensIC50; for Ther Window: average IC50 drug-resistant group divided by average IC50 drug-sensitive group
Description: (§1) Cells were seeded at densities of 1,000-5,000 cells per well in 48-well tissue culture plates. After a 24 hours rest period, cells were treated with compound at 10 μM, 2 μM, 0.4 μM, 0.08 μM, 0.016 μM, and 0.0032 μM. A group of cells were treated with the vehicle in which the compound was prepared and served as a control. The cells were grown in the presence of compounds for 6 days and were counted on day 0 and day 6. A11 cell counting was performed using a Synentec Cellavista plate imager. […] Growth inhibition was calculated as a ratio of cell population doublings in the presence of compound versus the absence of compound. […] IC50 values for each compound (see Table 3; reported in μM) were calculated by fitting curves to data points from each dose-response assay using the Proc NLIN function in SAS for Windows version 9.2 (SAS Institute, Inc.).
(§2) These sensitive and resistant cohorts were interrogated for response to each compound, and IC50s were calculated for each cell line using the same technique described above. Average IC50s for the sensitive and resistant cohorts were calculated as geometric means of the group. “Therapeutic Window” for each compound was calculated by dividing the average IC50 for the drug-resistant group by the average IC50 for the drug-sensitive group.

[3] = system: CYP isozymes (IC50s averaged over the isozymes); assay: CYP Enzymatic Inhibition Assay in human liver microsomes
Description: Inhibition of various CYP isozymes was measured for each compound using a CYP enzyme inhibition assay in human liver microsomes (HLM). Compounds and standard inhibitors were prepared at a 100× working solutions. Substrates or PBS were added to the corresponding wells followed by addition of compounds, solvent or positive control working solution to corresponding wells. HLMs were added to the pre-warmed (37° C.) plate and mixed with NADPH cofactor for 10 minutes at 37° C. The reaction was terminated by adding 400 μL cold stop solution (200 ng/mL Tolbutamide and 200 ng/mL Labetalol in ACN). The plate was centrifuged at 4,000 rpm for 20 minutes, and supernatant was transferred to 100 μL HPLC water followed by LC/MS/MS analysis.

[4] = molecular target: CDK4 (Homo sapiens (Human), UniProt P11802); assay: Cdk4 and 6 Enzymatic Inhibition Assay (radiometric 33PanQinase, Ki determination); assay type: biochemical
Sequence of CDK4 (P11802 whole entry): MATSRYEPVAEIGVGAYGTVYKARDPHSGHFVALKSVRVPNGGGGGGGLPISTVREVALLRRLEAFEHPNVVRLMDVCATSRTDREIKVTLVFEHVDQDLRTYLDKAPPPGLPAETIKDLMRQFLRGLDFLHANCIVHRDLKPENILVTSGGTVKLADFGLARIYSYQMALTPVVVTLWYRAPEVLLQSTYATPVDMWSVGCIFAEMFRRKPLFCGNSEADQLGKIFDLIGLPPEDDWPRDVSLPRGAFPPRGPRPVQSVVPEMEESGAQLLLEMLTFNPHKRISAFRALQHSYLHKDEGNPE
Sequence of CDK4 (P24385 whole entry partner): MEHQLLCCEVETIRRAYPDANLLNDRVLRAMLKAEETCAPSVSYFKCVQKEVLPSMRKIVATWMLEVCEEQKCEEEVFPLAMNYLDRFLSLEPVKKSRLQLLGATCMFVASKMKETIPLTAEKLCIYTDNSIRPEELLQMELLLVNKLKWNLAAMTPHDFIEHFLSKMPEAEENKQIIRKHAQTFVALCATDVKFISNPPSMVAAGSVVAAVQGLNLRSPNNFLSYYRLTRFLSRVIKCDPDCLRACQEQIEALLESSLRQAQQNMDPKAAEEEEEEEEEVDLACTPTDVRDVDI
Description: (§3) 10 distinct concentrations were prepared, with a dilution endpoint of 6×10^−9 M in 100% DMSO. 100% DMSO was used as a control. 10 μL from each of the serial dilutions were aliquoted into separate wells of a 96-well plate and 90 μL of water were added to each of those wells. The plate was shaken thoroughly, and 5 μL from each of the plate's wells were transferred into wells of the assay plate. The final volume of wells in the assay plate was 50 μL. A11 compounds were tested at 10 assay concentrations in the range from 2×10^−6 M to 6×10^−11 M. The final DMSO concentration in the wells of the assay plate was 1% in all cases.
(§4) A radiometric protein kinase assay (33PanQinase® Activity Assay) was used for measuring the kinase activity of six protein kinases. A11 kinase assays were performed in 96-well FlashPlates™ from PerkinElmer (Boston, MA, USA). The assay for all protein kinases contained 70 mM HEPES-NaOH pH 7.5, 3 mM MgCl2, 3 mM MnCl2, 3 μM Na-orthovanadate, 1.2 mM DTT, 50 μg/mL PEG20000, ATP [γ-33P]-ATP (approx. 9×1005 cpm per well), protein kinase and substrate. The reaction cocktails were incubated at 30° C. for 60 minutes. The reaction was stopped with 50 μL of 2% (v/v) H3PO4, and plates were aspirated and washed two times with 200 μL 0.9% (w/v) NaCl. Incorporation of ^33Pi was determined with a microplate scintillation counter (Microbeta, Wallac).

[5] = molecular target: CDK6 (Homo sapiens (Human), UniProt Q00534); assay: as above; assay type: biochemical
Sequence of CDK6 (Q00534 whole entry): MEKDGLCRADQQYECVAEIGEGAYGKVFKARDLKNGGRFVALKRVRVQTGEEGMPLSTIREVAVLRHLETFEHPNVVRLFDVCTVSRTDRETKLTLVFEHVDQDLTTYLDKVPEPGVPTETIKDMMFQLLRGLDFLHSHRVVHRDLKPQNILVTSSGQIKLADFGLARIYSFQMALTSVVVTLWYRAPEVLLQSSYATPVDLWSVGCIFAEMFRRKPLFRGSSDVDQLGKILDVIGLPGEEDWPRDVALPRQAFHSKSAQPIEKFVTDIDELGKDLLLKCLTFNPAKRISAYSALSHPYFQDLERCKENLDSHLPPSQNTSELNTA
Sequence of CDK6 (P24385 whole entry partner): as the sequence (P24385 whole entry partner) above
Description: as §3, §4

[6] = system: drug-resistant cell lines of Table 2 (NCI-H1437, OV207, HCC1806, NCI-H2172); assay: Cell Line Growth Retardation Assay, resistant cohort; assay type: cell-based, human; settings: Homo sapiens, […], geometric mean over resistant cohort; 6 days growth; read-out: AvgResIC50
Description: as §1, §2

[7] = Measurement of Compound Metabolic Stability in hepatocytes
Description: The metabolic stability of compounds was determined in hepatocytes from mice and rats. Compounds were diluted to 5 μM in Williams' Medium E from 10 mM stock solutions. 10 μL of each compound was aliquoted into a well of a 96-well plate and reactions were started by aliquoting 40 μL of a 625,000 cells/mL suspension into each well. The plate was incubated at 37° C. with 5% CO2. At each corresponding time point, the reaction was stopped by quenching with ACN containing internal standards (IS) at a 1:3. Plates were shaken at 500 rpm for 10 min, and then centrifuged at 3,220×g for 20 minutes. Supernatants were transferred to another 96-well plate containing a dilution solution. Supernatants were analyzed by LC/MS/MS. Compound half-life was estimated using the following equation:

[8] = Caco-2 Assay (Papp A to B); settings: human, Caco-2, pH 7.4
Description: The degree of bi-directional human intestinal permeability for compounds was estimated using a Caco-2 cell permeability assay. Caco-2 cells were seeded onto polyethylene membranes in 96-well plates. The growth medium was refreshed every 4 to 5 days until cells formed a confluent cell monolayer. HBSS with 10 mM HEPES at pH 7.4 was used as the transport buffer. Compounds were tested at 2 μM bi-directionally in duplicate. Digoxin, nadolol and metoprolol were included as standards. Digoxin was tested at 10 μM bi-directionally in duplicate, while nadolol and metoprolol were tested at 2 μM in the A to B direction in duplicate. The final DMSO concentration was adjusted to less than 1% for all experiments. The plate was incubated for 2 hours in a CO2 incubator at 37° C., with 5% CO2 at saturated humidity. After incubation, all wells were mixed with acetonitrile containing an internal standard, and the plate was centrifuged at 4,000 rpm for 10 minutes. 100 μL supernatant was collected from each well and diluted with 100 μL distilled water for LC/MS/MS analysis. Concentrations of test and control compounds in starting solution, donor solution, and receiver solution were quantified by LC/MS/MS, using peak area ratio of analyte/internal standard. The apparent permeability coefficient Papp (cm/s) was calculated using the equation: Papp=(dCr/dt)×Vr/(A×C0) Where dCr/dt is the cumulative concentration of compound in the receiver chamber as a function of time (μM/s); Vr is the solution volume in the receiver chamber (0.075 mL on the apical side, 0.25 mL on the basolateral side); A is the surface area for the transport, which is 0.0804 cm^2 for the area of the monolayer; C0 is the initial concentration in the donor chamber (μM).

Sequence of hERG potassium channels (Q12809 whole entry): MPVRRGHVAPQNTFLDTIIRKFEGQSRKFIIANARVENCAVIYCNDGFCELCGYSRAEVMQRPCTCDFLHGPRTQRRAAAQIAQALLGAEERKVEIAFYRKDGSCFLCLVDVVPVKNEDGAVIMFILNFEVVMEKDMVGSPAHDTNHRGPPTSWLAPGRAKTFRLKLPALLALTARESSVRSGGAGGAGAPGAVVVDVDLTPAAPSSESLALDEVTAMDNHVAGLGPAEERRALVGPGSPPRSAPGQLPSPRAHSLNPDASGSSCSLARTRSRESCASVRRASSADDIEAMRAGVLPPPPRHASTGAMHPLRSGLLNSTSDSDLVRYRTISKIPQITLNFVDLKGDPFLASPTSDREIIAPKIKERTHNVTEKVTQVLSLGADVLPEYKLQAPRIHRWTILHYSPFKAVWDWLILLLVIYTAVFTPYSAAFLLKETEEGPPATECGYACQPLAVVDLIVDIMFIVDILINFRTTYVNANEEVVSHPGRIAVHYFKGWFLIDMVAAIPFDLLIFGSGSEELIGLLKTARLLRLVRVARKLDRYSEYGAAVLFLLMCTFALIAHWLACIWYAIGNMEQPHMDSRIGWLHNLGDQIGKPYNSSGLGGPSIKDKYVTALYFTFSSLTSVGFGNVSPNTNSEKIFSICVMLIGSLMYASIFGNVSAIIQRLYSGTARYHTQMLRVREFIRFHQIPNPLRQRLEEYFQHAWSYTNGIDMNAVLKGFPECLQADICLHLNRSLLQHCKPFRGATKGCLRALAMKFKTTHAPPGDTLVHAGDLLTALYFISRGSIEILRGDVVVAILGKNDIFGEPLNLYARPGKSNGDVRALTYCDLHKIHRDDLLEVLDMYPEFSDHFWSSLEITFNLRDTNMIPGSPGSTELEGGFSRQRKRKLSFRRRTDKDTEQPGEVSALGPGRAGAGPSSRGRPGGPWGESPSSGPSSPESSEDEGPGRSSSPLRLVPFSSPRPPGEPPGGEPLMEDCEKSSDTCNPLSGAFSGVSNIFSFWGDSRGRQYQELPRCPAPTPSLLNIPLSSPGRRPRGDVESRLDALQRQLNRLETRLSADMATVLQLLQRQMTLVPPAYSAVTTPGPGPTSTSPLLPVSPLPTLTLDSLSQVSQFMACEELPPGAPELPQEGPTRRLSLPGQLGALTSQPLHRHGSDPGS

Compound	IC50 [2]	IC50 at 10 min [3]	Ki [4]	Ki [5]	IC50 [6]	half-life at 1 μM [7]	Papp A→B at 2 h, 2 μM [8]	hERG [1]	Ther Window [2]
Cc1nc2c(F)cc(-c3nc(Nc4ccc(CN5CCO[C@](C)(CCNCC(F)F)C5)cn4)ncc3F)cc2n1C(C)C [Compound A6, (R)—N-(5-((2-(2-((2,2-difluoroethyl)amino)ethyl)-2-methylmorpholino)methyl)pyridin-2-yl)-5-fluoro-4-(4-fluoro-1-isopropyl-2-methyl-1H-benzo[d]imidazol-6-yl)pyrimidin-2-amine]	100 nM	14600 nM	0.83 nM	5.35 nM	1000 nM	14.2 min	1.12 ×10⁻⁶ cm/s	32.76%	10.42
Cc1nc2c(F)cc(-c3nc(Nc4ccc(CN5CCO[C@](C)(CCN6CC(F)C6)C5)cn4)ncc3F)cc2n1C(C)C [Compound A13]	70 nM	15200 nM	0.92 nM	4.79 nM	710 nM	8.9 min	1.02 ×10⁻⁶ cm/s	23.72%	10.82
Cc1nc2c(F)cc(-c3nc(Nc4ccc(CN5CCO[C@](C)(CCN6CC[C@H](F)C6)C5)cn4)ncc3F)cc2n1C(C)C [Compound A14, 5-fluoro-4-(4-fluoro-1-isopropyl-2-methyl-1H-benzo[d]imidazol-6-yl)-N-(5-(((R)-2-(2-((S)-3-fluoropyrrolidin-1-yl)ethyl)-2-methylmorpholino)methyl)pyridin-2-yl)pyrimidin-2-amine]	80 nM	16900 nM	0.92 nM	4.99 nM	980 nM	10.7 min	0.69 ×10⁻⁶ cm/s	23.34%	11.53

Second part, led by results:

IC50 [2]	IC50 at 10 min [3]	Ki [4]	Ki [5]	IC50 [6]	half-life at 1 μM [7]	Papp A→B at 2 h, 2 μM [8]	Compound	hERG [1]	Ther Window [2]
80 nM	17100 nM	0.78 nM	4.04 nM	590 nM	19.3 min	0.8 ×10⁻⁶ cm/s	Cc1nc2c(F)cc(-c3nc(Nc4ccc(CN5CCO[C@](C)(CCN6CC[C@@H](F)C6)C5)cn4)ncc3F)cc2n1C(C)C [Compound A15, 5-fluoro-4-(4-fluoro-1-isopropyl-2-methyl-1H-benzo[d]imidazol-6-yl)-N-(5-(((R)-2-(2-((R)-3-fluoropyrrolidin-1-yl)ethyl)-2-methylmorpholino)methyl)pyridin-2-yl)pyrimidin-2-amine]	17.46%	7.07
60 nM	47900 nM	1.42 nM	5.81 nM	870 nM	217 min	0.01 ×10⁻⁶ cm/s	Cc1nc2c(F)cc(-c3nc(Nc4ccc(CN5CCO[C@](C)(CCN6CCCC6)C5)cn4)ncc3F)cc2n1C(C)C [Compound A16, (R)-5-fluoro-4-(4-fluoro-1-isopropyl-2-methyl-1H-benzo[d]imidazol-6-yl)-N-(5-((2-methyl-2-(2-(pyrrolidin-1-yl)ethyl)morpholino)methyl)pyridin-2-yl)pyrimidin-2-amine]	18.09%	15.20
50 nM	51700 nM	1.03 nM	5.25 nM	850 nM	217 min	0.02 ×10⁻⁶ cm/s	Cc1nc2c(F)cc(-c3nc(Nc4ccc(CN5CCO[C@](C)(CCN6CCC6)C5)cn4)ncc3F)cc2n1C(C)C [Compound A17, (R)—N-(5-((2-(2-(azetidin-1-yl)ethyl)-2-methylmorpholino)methyl)pyridin-2-yl)-5-fluoro-4-(4-fluoro-1-isopropyl-2-methyl-1H-benzo[d]imidazol-6-yl)pyrimidin-2-amine]	20.47%	15.41
